According to patent US12465637B2, “Compositions and methods for modulation of antibody activity” (Institute for Cancer Research, priority 2019, dated 2025):

Legend:
[1] = system: 4D5Flu triple mutant (VLF98G/VHV37A/VHW110G); assay: Fluorescein fluorescence quenching, effector (JK43/analog) rescue of triple mutant; assay type: biochemical; settings: effector titration; 500 nM triple mutant, 10 nM fluorescein, 1% DMSO
Method: For the protein titration experiment, samples were prepared by titrating varying concentrations of protein (WT or triple mutant) into PBS containing a final concentration of 10 nM fluorescein and 1% DMSO, with or without 100 μM JK43. For the JK43 titration experiment, samples were prepared by titrating varying concentrations of JK43 into PBS with a final concentration of 10 nM fluorescein, 1% DMSO and 500 nM protein (WT or triple mutant). For the SAR experiment, samples were prepared by adding 10 μM of JK43 analogs into PBS with a final concentration of 10 nM fluorescein, 1% DMSO and 500 nM triple mutant.
Fluorescence quenching experiments were carried out in a SpectraMax® i3x Multi-Mode Microplate Reader (Molecular Devices), using a Costar 96-well black round bottom plates, 200 μL reaction volume, excitation wavelength of 475 nm and emission wavelength of 525 nm, at a temperature of 27° C. Blank measurements containing all sample components except fluorescein were subtracted to remove background. All samples were normalized to a control of fluorescein alone (0% quenching) and buffer alone (100% quenching).

[2] = system: CTLA-4; assay: CTLA-4 sandwich ELISA (BioLegend); assay type: binding; settings: compared with ipilimumab
Method: Two anti-CTLA-4 scFv constructs (3GSWT with -GG(GGSGG)3GG- linker (SEQ ID NO: 6) and 5GSWT with -GG(GGSGG)5GG- linker (SEQ ID NO: 7)) were generated based on ipilimumab. The activity of each scFv antibody construct was compared via a sandwich ELISA assay (BioLegend; San Diego, CA), according to the manufacturer's instruction.
The triple mutation (VLF98G/VHV37A/VHW110G) was introduced into the 5GSWT scFv construct. The ability of JK43 to rescue the triple mutant was then tested. Briefly, the ability of the wild-type (5GSWT scFv construct) and triple mutant constructs to bind CTLA-4 was tested in the presence or absence of JK43 using the above sandwich ELISA assay, according to the manufacturer's instructions.

| Compound | EC50 [1] [µM] | Binding of CTLA-4 (FIG. 6B) [2] |
| --- | --- | --- |
| c1ccc(COc2ccc3cn[nH]c3c2)cc1 [JK43, 6-phenylmethoxy-1H-indazole] | 16 | – |
| 3GSWT: anti-CTLA-4 scFv based on ipilimumab with -GG(GGSGG)3GG- linker (SEQ ID NO: 22) | – | readily bind CTLA-4, albeit slightly less potently than ipilimumab |
| c1ccc(COc2ccc3cc[nH]c3c2)cc1 [JK25, 6-phenylmethoxy-1H-indole] | 25 | – |
